Measured values taken from patent EP0431799A2, “Use of nucleoside derivatives as cytotoxic agents” (THE WELLCOME FOUNDATION LIMITED, priority 1989, dated 1991).

Test system: P388 tumor cells
Design: species or system Male CD2-F₁ mice
Details: mouse, in vivo, po
Source text: The tests employed for evaluating the antitumour activity of compounds of the present invention are essentially those used in the Tumor Panel of the Developmental Therapeutics Program, Divison of Cancer Treatment National Cancer Institute, A Goldin, et al., Methods in Cancer Research, Vol. XVI, p. 165, Academic Press (1979). Some modifications in dose level and schedule have been made to increase the testing efficiency.
Male CD2-F₁ mice, weighing 20 ± 3 g, were used for this test. Control and test animals were injected intraperitioneally with a suspension of ∼10⁶ viable P388 tumor cells on day 0. In each test, several dose levels which bracketed the LD₂₀ of the compound were evaluated; each dose level group contained six animals. The test compounds were prepared either in physiologic saline containing 0.05% Tween 80 or distilled water containing 5% dextrose and were administered (a) orally, (b) intravenously or (c) intraperitoneally according to the indicated schedule relative to the day of tumour implant. Doses were on a mg/kg basis according to individual animals' body weights. The day of death for each animal was recorded, the median identified for each group and the percent increase in life span (%ILS) was calculated from the ratios of median survival time for treated to control groups. The criterion for activity is % ILS greater than or equal to 20%.

Nc1ncnc2c1ncn2[C@@H]1CC[C@@H](O)[C@H]1O (racemic) [(±)-(1R*,2S*,3R*)-3-(6-amino-9H-purin-9-yl)-1,2-cyclopentanediol]
Toxic at:: 35 mg/kg
